According to US10132795B2, “Method for evaluating or selecting agent for suppressing GIP level elevation” (Kao Corporation, priority 2014, dated 2018):

Experiments:
[1] = tested on: blood GIP and triglyceride (TG) concentrations; assay: Single-dose administration test in mice (lipid emulsion load after FABP4/5 inhibitor); type: in vivo, mice (C57BL/6J); conditions: 30 mg/kg body weight intragastric
Procedure: Mice (C57BL/6J, male, 9 weeks old, n=4 to 5, CLEA Japan, Inc.) were fasted for 18 hours and then given intragastric administration of the FABP4/5 inhibitor BMS309403 (30 mg/kg body weight) in a solvent (10% 1-methyl-2-pyrrolione, 5% cremophor, and 2% ethanol) or only the solvent (control) through feeding needles under anesthesia. After 30 minutes, intragastric administration of lipid emulsions (triolein; 2 mg/kg body weight) was given. Blood was collected from the orbital sinus before and 10, 30, and 60 minutes after the administration of lipid emulsions. The blood thus collected was centrifuged at 11,000 rpm, 4° C. for 10 minutes to prepare the plasma. The blood GIP and triglyceride (TG) concentrations were measured with a GIP ELISA kit (for rat/mouse) (Merck Millipore Corporation) and a triglyceride E-test Wako (Wako Pure Chemical Industries, Ltd.), respectively.

[2] = tested on: mouse model of type-II diabetes or arteriosclerosis; conditions: oral administration; Non Patent Literature 18; cited from earlier work
[3] = tested on: primary culture cells of the small intestine; assay: FABP4/5 inhibition test: lipid micelle (PPM)-stimulated GIP secretion in primary culture cells of the small intestine; type: cell-based, C57BL/6J mice; conditions: inhibitor 10 or 25 μM, 30 min pre-incubation and 30 min PPM stimulation; compared to PPM group; FIG. 3
Source text: C57BL/6J mice, 13 to 17 weeks old, were euthanized by cervical dislocation under anesthesia. The upper part of the small intestine (up to 10 cm immediately below the pylorus) was taken out and immersed in ice-cooled L-15 media (Sigma-Aldrich Co. LLC.). The small intestine was then transferred to ice-cooled PBS. Fat, blood vessels, etc. adhering to the intestinal tract were carefully removed. The inside of the lumen was washed with ice-cooled PBS and the tissue was cut into small pieces (pieces having an area of 2 mm^2 or smaller) with a scalpel. The small pieces were washed three to four times with PBS, to which 10 mL of DMEM (Sigma-Aldrich Co. LLC.) having Collagenase XI (Sigma-Aldrich Co. LLC.; 0.4 mg/mL) dissolved therein was added, followed by vigorous shaking for 10 seconds and then incubation at 37° C. for five minutes. The supernatants were then removed and 10 mL of the Collagenase solution was added again, followed by vigorous shaking for 10 seconds and then incubation at 37° C. for five minutes. […]
The media thus collected were centrifuged at 8,000 rpm, 4° C. for five minutes to obtain supernatants (secretion samples). […] GIP was quantitated in these samples with a GIP ELISA kit (for rat/mouse) (Merck Millipore Corporation) to obtain GIP secretion rates.

[4] = 30 min before lipid emulsion, compared to control group, FIG. 2B
[5] = 30 min before triolein lipid emulsion, blood at 10, 30, 60 min, compared to control (solvent) group, FIG. 2A

## CCc1c(-c2ccccc2)c(-c2ccccc2)nn1-c1ccccc1-c1cccc(OCC(=O)O)c1 [BMS309403]
[1]; [4]
  Cmax of the blood GIP concentration: statistically significantly reduced
  iAUC (0-1 h) of the blood GIP concentration: statistically significantly reduced
[1]; [5]
  increase in the blood GIP concentration (ΔGIP) after the administration of lipid emulsions: statistically significantly reduced
  increase in the blood TG concentration (ΔTG) after the administration of lipid emulsions: statistically significantly reduced
[2]
  pathological condition in mouse model of type-II diabetes or arteriosclerosis: Amelioration in the pathological condition
[3]
  increase in the GIP secretion rate of PPM-stimulated cells: dose-dependently suppressed
